Measured values from ChEMBL document CHEMBL3039007, “Structure-based identification of OATP1B1/3 inhibitors” (Mol Pharmacol, 2013).
Where “and” joins values, the source holds several entries; their conditions need not be identical. Identical values can stand only once. Residues, ends and D or L forms follow the SMILES beside them.

Legend:
[1] = target: T1, Solute carrier organic anion transporter family member 1B3 (Homo sapiens, UniProt Q9NPD5); conditions: chinese hamster, cho, 10 µM
T1 sequence (Q9NPD5 whole entry): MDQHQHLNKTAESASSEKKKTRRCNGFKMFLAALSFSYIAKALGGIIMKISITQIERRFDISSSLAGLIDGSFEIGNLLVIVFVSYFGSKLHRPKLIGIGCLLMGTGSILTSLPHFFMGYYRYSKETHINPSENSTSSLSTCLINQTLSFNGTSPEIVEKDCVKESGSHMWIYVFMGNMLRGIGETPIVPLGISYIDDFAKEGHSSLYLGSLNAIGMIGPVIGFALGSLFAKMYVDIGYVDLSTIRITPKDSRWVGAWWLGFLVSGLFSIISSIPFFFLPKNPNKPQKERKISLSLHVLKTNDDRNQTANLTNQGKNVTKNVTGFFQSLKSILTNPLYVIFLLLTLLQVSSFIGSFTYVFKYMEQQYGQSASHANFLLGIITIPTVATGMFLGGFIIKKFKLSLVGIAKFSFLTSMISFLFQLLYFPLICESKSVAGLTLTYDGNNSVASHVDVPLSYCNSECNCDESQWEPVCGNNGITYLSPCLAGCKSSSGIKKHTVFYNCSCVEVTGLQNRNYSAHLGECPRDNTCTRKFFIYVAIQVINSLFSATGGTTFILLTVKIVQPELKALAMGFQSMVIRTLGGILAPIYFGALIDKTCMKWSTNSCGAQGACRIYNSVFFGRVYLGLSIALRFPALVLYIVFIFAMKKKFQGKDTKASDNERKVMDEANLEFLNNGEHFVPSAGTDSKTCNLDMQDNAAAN

[2] = target: T2, Solute carrier organic anion transporter family member 1B1 (Homo sapiens, UniProt Q9Y6L6); conditions: chinese hamster, cho, 10 µM
T2 sequence (Q9Y6L6 whole entry): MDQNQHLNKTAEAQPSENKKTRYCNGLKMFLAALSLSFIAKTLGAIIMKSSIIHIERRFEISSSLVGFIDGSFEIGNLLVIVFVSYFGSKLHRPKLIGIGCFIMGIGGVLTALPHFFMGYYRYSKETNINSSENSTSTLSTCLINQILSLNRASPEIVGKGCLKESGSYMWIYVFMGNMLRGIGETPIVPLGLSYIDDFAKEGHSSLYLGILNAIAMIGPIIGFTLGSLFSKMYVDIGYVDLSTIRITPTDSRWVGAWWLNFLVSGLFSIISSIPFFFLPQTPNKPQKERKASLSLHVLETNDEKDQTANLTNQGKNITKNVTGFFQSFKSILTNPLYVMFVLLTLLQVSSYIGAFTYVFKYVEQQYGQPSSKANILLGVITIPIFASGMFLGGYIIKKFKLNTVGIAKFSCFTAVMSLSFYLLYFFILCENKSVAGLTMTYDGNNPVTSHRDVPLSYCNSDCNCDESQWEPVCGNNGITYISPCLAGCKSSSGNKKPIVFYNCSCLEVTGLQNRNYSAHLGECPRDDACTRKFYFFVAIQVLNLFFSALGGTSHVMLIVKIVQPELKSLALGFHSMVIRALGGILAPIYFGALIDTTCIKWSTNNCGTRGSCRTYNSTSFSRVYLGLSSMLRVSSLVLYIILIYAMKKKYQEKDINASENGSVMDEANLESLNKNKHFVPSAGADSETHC

Structure (SMILES)	residual activity [1]	residual activity [2]
CC(C)Cn1c(=O)n(C)c(=O)c2[nH]cnc21 [ISOBUTYLMETHYLXANTHINE]	85.37% and 74.61%	102.2% and 126.3%
CC(C)=CCc1c2c(c3occ(-c4ccc(O)cc4)c(=O)c3c1O)C=CC(C)(C)O2 [OSAJIN]	88.68%	112.9%
CS(=O)(=O)c1ccc(C2=C(c3ccccc3)C(=O)OC2)cc1 [ROFECOXIB]	84.03%	134.4%
COC(=O)C1=CO[C@@H](O[C@@H]2O[C@H](CO)[C@@H](O)[C@H](O)[C@H]2O)[C@@H]2[C@@H](C)[C@@H](O)C[C@H]12 [LOGANIN]	87.42%	98.87%
O=C([O-])c1cc2cc(Cc3cccnc3)ccc2o1.[Na+]	108.4%	121%
Oc1ccc(O)cc1 [HYDROQUINONE]	93.82%	112.9%
Cc1coc2ccccc2c1=O [METHYLCHROMONE]	92.21%	91.88%
CC(C)[C@H]1CC[C@H](C(=O)N[C@H](Cc2ccccc2)C(=O)O)CC1 [NATEGLINIDE]	70.33%	99.81%
CC(C)(O)[C@@H]1[C@H]2OC(=O)[C@@H]1[C@]1(O)C[C@H]3O[C@]34C(=O)O[C@H]2[C@]14C [PICROTIN]	89.14%	88.44%
CN1CCC(=C2c3ccccc3Sc3ccccc32)CC1.O=C(O)/C=C\C(=O)O [PIMETHIXENE MALEATE]	104.8%	83.52%
O=C1C(O)=C([C@H]2CC[C@H](c3ccc(Cl)cc3)CC2)C(=O)c2ccccc21 [ATOVAQUONE]	81.94%	89.04%
CNC(C)(C)Cc1ccccc1.O=S(=O)(O)O	109.4%	107.5%
CC1(C)S[C@@H]2[C@H](NC(=O)C(C(=O)[O-])c3ccccc3)C(=O)N2[C@H]1C(=O)[O-].[Na+].[Na+] (stereo not given in full) [CARBENICILLIN DISODIUM]	100.7%	108.5%
Cc1cccc2c3c(ccc12)C1=C(C(=O)C3=O)[C@@H](C)CO1 [DIHYDROTANSHINONE I]	129.1%	111.4%
CC(C)N1C(=O)c2ccccc2NS1(=O)=O [BENTAZON]	96.3%	109.9%
N=C1C=CC(=C(c2ccc(N)cc2)c2ccc(N)cc2)C=C1.N=C1C=CC(=C(c2ccc(N)cc2)c2ccc(N)cc2)C=C1.O.O.O=C(O)c1cc2ccccc2c(Cc2c(O)c(C(=O)O)cc3ccccc23)c1O [PARAROSANILINE PAMOATE]	144.5%	66.86%
CC1(C)CC2C1CC[C@]1(CBr)CCC3C(CC(=O)O)C(=O)O[C@@]32C1 (stereo not given in full) [BROMO-3-HYDROXY-4-(SUCCIN-2-YL)-CARYOLANE gamma-LACTONE]	50.1%	26.83%
C=C(C)[C@@H]1CC[C@]2(C(=O)O)CC[C@]3(C)[C@H](CC[C@@H]4[C@@]5(C)CC[C@H](O)C(C)(C)[C@@H]5CC[C@]43C)[C@@H]12 [BETULINIC ACID]	38.62%	25.94%
CC(C)C[C@H](NC(=O)[C@H](Cc1ccccc1)NC(=O)CNC(=O)CNC(=O)[C@@H](N)Cc1ccc(O)cc1)C(=O)O [ENKEPHALIN]	87.68%	84.58%
CC(=O)OCC(=O)[C@@]1(O)CC[C@H]2[C@@H]3C[C@H](C)C4=CC(=O)C=C[C@]4(C)[C@H]3[C@@H](O)C[C@@]21C [METHYLPREDNISOLONE ACETATE]	84.05%	52.04%
CC(C)(OC(=O)c1ccccc1)[C@@H]1Cc2cc3ccc(=O)oc3cc2O1 [FELAMIDIN]	168.9%	115.2%
CCCSc1ccc2nc(NC(=O)OC)[nH]c2c1 [ALBENDAZOLE]	95.9%	102.7%
Cl.OCCN1CCN(CCCN2c3ccccc3Sc3ccc(C(F)(F)F)cc32)CC1	93.03%	153.1%

Structure (SMILES)	residual activity [1]	residual activity [2]
O=c1c(O)c(-c2ccc(O)c(O)c2)oc2cc(O)cc(O)c12 [QUERCETIN]	122.6%	47.09%
CCCCCC1C(=O)CCC1CC(=O)O (stereo not given) [DIHYDROJASMONIC ACID]	102.5%	113.7%
COc1ccc([C@H]2Oc3cc(OC)cc(OC)c3C[C@H]2O)cc1 [EPIAFZELECHIN TRIMETHYL ETHER]	113.6%	79.64%
O=c1ccc2ccccc2o1 [COUMARIN]	99.05%	116.6%
C=C[C@@](C)(O)CC[C@H]1C(=C)C[C@H](O)[C@H]2C(C)(C)CCC[C@]12C	78.26%	48.6%
N#Cc1c(Cl)cccc1Cl [DICHLOBENIL]	97.91%	87.7%
CC(=O)N[C@@H](CC(=O)N[C@@H](CCC(=O)O)C(=O)O)C(=O)O [SPAGLUMIC ACID]	87.85%	87.3%
CC(C)[C@H](N)C(=O)N[C@@H](Cc1c[nH]c2ccccc12)C(=O)O [VALYLTRYPTOPHAN] (H-Val-Trp-OH)	102.8%	100.2%
CO[C@H]1[C@H](O)[C@H](O[C@H]2CC[C@@]3(C)[C@H](CC[C@@H]4[C@@H]3CC[C@]3(C)[C@@H](C5=CC(=O)OC5)CC[C@]43O)C2)O[C@@H](C)[C@@H]1O [NERIIFOLIN]	148.8%	95.6%
COc1ccc(-c2coc3cc(O)ccc3c2=O)c(OC)c1 [2'-METHOXYFORMONETIN]	83.66%	74.56%
CCn1cc(C(=O)O)c(=O)c2cc3c(cc21)OCO3 [OXOLINIC ACID]	87.39%	55.65%
COc1ccc2c(c1)[C@@]1(C)CCC(=O)C[C@@H]1CC2 [5alpha-12-METHOXY-4,4-BISNOR-8,11,13-PODOCARPATRIEN-3-ONE]	89.3%	131.2%
CN(C)[C@@H]1C(O)=C(C(N)=O)C(=O)[C@@]2(O)C(O)=C3C(=O)c4c(O)ccc(Cl)c4[C@@H](O)[C@H]3C[C@@H]12.Cl [DEMECLOCYCLINE HYDROCHLORIDE]	90.61%	104.7%
C=CCN1CC[C@]23c4c5ccc(O)c4O[C@H]2C(=O)CC[C@@]3(O)[C@H]1C5.Cl [NALOXONE HYDROCHLORIDE]	113.7%	111.5%
NC(CO)(CO)CO.O=C(c1ccccc1)c1ccc2n1CCC2C(=O)O (stereo not given) [KETOROLAC TROMETHAMINE]	87.08%	196.1%
O=C1C=C(O)C(=O)c2ccccc21 [LAWSONE]	101.6%	99.76%
Cl[C@H]1[C@H](Cl)[C@@H](Cl)[C@@H](Cl)[C@H](Cl)[C@H]1Cl [LINDANE]	90.09%	79.82%
C=C1C(=O)O[C@H]2C[C@@H]1C(OC(C)=O)C/C(C)=C/CC/C(C)=C/CC[C@@]2(C)O (stereo not given in full) [CRASSIN ACETATE]	65.53%	60.87%
CC1COc2c(N3CCN(C)CC3)c(F)cc3c(=O)c(C(=O)O)cn1c23 (stereo not given) [OFLOXACIN]	89.51%	65.85%
CC1=CC(=O)C2=C(C)C[C@H](O)[C@@H]3[C@H](OC(=O)[C@H]3C)[C@H]12 [AUSTRICINE]	86.81%	102.6%
CC(=O)OC(C)(C)[C@@H]1Cc2cc3ccc(=O)oc3cc2O1 [MARMESIN ACETATE]	88.18%	70.52%
C[C@H](CCC(=O)O)[C@H]1CC[C@H]2[C@@H]3CC[C@@H]4C[C@H](O)CC[C@]4(C)[C@H]3CC[C@]12C [LITHOCHOLIC ACID]	60.21%	6.612%
